In patent publication US20090304755A1, “PHARMACEUTICAL FORMULATION OF LOSARTAN” (priority 2005, published 2009):

Assays:
[1] = Particle size by Malvern light scattering technique; type: physicochemical; conditions: particle size of losartan active agent
Description: “d (0.9)” denotes a particle size wherein 90% (volume) particles have diameter less than the specified diameter d.

[2] = Specific surface area by gas adsorption analyzer method (BET); type: physicochemical; conditions: losartan active agent
Description: The results of our investigations have shown that it is advantageous to use losartan, with a particle size d (0.9) less than 50μ measured by Malvern light scattering technique, and/or a specific particle specific surface area more than 0.6 m^2/g measured by the Gas adsorption analyzer method (BET).

[3] = oral administration; cited from earlier work

CCCCc1nc(Cl)c(CO)n1Cc1ccc(-c2ccccc2-c2nn[nH]n2)cc1 [A, Losartan Potassium]
d (0.1) [1]: d (0.1) = 0.869μ
d (0.5) [1]: d (0.5) = 10.077μ
d (0.9) [1]: d (0.9) = 21.382μ
Specific Surface Area [2]: Specific Surface Area = 0.7-0.8 m^2/g

CCCCc1nc(Cl)c(CO)n1Cc1ccc(-c2ccccc2-c2nn[nH]n2)cc1 [B, Losartan Potassium]
d (0.1) [1]: d (0.1) = 1.806μ
d (0.5) [1]: d (0.5) = 24.812μ
d (0.9) [1]: d (0.9) = 53.931μ
Specific Surface Area [2]: Specific Surface Area = 0.4-0.5 m^2/g

CCCCc1nc(Cl)c(CO)n1Cc1ccc(-c2ccccc2-c2nn[nH]n2)cc1 [losartan, Losartan]
systemic bioavailability [3]: approximately 33%
